The values below come from patent publication EP2229935A1, “Peptide derivatives or pharmaceutically acceptable salts thereof, method for producing the same, use of said derivatives and pharmaceutical composition” (Nebolsin, Vladimir Evgenievich, priority 1997, dated 1999).

Marks after values point to notes of the source that are not given here.

This assay deals with mongrel male rats. The experiment in a line: Hypolipidemic activity: experimental hyperlipidemia (atherogenic load).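 On all read-outs here: serum drawn 18 h after the final dose from rats deprived of food over that interval, groups of 10 animals.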 The following applies: atherogenic diet; for Kcs: cholesterol index.
[1] abbreviates: blood serum, 10 µg/kg for 10 days.
[2] abbreviates: blood, oral last four days, 50 µg/kg.

For the compound `O=C(O)c1cccnc1` [nicotinic acid, reference compound], under setting [1], the HDL-CS was 42.1 ± 4.2***^1.2, the “LDL-CS+ VLDL-CS” value was 25.7 ± 2.8***^2, the Total-CS is on record as 65.7 ± 3.5 and the Triglycerids is recorded as 89.4 ± 6.2***^2. In addition, the Kcs (10 µg/kg for 10 days) is 0.56***^2.
In the case of `CC(=O)NC(CC(=O)O)C(=O)NCCc1c[nH]cn1` (stereo not drawn) [LI, N-Acethyl- α-Aspartylhistamine], under setting [2], the HDL-CS was 39,8±1,6**^A, the “LDL-CS+ VLDL-CS” value is recorded as 59,3±3,5*^A, the “Total CS” value is reported as 99,1±4,5 and the Triglycerides is 132,1±17,4**^A. In addition, for the setting “oral last four days, 50 µg/kg”, the Kcs is 1,49±0,07***^A.
For `CC(=O)NC(CC(=O)NCCc1c[nH]cn1)C(=O)O` (stereo not drawn) [L, N-Acethyl-β -Aspartylhistamine], under setting [2], the HDL-CS is reported as 31,0±2,1, the “LDL-CS+ VLDL-CS” value is 63,1±2,4*^A, the “Total CS” value is on record as 94,1±2,1 and the Triglycerides is 141,6±12,6**^A. Besides, the Kcs (oral last four days, 50 µg/kg) is recorded as 2,03±0,09***^A.
